Measurements taken from publication PMC7588595, “Small-molecule active pharmaceutical ingredients of approved cancer therapeutics inhibit human aspartate/asparagine-β-hydroxylase” (Bioorganic & Medicinal Chemistry, 2020).
Structures can show the parent of a compound that is named as a salt. Where two headings read alike, the source gives them in different places.

Target: T1, human AspH (His6-AspH315–758) (Homo sapiens, UniProt Q12797)
T1 construct: N-Terminally His6-tagged human AspH315–758 (His6-AspH315–758) was produced in Escherichia coli BL21 (DE3) cells; made in house; host or cells: Escherichia coli BL21 (DE3), pET-28a(+) vector
T1 sequence (Q12797 315-758): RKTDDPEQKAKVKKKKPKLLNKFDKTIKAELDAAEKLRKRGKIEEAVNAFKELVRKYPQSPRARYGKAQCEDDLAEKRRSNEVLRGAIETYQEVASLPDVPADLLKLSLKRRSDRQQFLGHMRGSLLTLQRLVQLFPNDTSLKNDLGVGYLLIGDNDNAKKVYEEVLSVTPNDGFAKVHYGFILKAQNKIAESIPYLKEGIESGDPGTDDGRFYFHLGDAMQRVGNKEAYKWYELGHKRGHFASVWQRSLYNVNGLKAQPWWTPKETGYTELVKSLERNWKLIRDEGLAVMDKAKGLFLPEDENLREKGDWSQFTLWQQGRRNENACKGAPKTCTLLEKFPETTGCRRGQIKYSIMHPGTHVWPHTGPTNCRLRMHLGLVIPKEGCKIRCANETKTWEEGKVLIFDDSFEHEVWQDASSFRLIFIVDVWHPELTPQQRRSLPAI
Assay: SPE-MS AspH inhibition assay (hFX-CP101-119 substrate hydroxylation)
Assay type: biochemical
Conditions: for Plate 1 (% inhibition) / Plate 1 (% conversion) / Plate 1-duplicate (% inhibition) / Plate 1-duplicate (% conversion): AspH-inhibitor screening; for Plate 1 (% inhibition): 384-well Plate 1; for Plate 1 (% conversion): 384-well Plate 1, substrate conversion; for Plate 1-duplicate (% conversion): substrate conversion

SMILES | Plate 1 (% inhibition) | Plate 1 (% conversion) | Plate 1-duplicate (% inhibition) | Plate 1-duplicate (% conversion) | IC50 (50 nM His6-AspH315–758, 1 μM hFX-CP101–119, 100 μM LAA, 3 μM 2OG, 2 μM FAS, 50 mM HEPES pH 7.5, 20 °C, read-out: IC50) | remaining activity at 20 µM (20 μM fixed inhibitor concentration) | Hill coefficient of AspH inhibition curves (dose-response curves of SPE-MS AspH inhibition assay) | IC50 (read-out: IC50 at 10 μM substrate, 10 μM hFX-CP101–119 and 10 μM 2OG instead of 1 μM hFX-CP101–119 and 3 μM 2OG) | IC50 (read-out: IC50 at 20 μM Fe(II), 20 μM Fe(II) instead of 2 μM Fe(II)) | IC50 (read-out: IC50 at 200 μM 2OG, 200 μM 2OG instead of 3 μM 2OG)
COc1cc2c(cc1-c1c(C)noc1C)ncc1[nH]c(=O)n([C@H](C)c3ccccn3)c12 [I-BET151 (GSK1210151A)] | 3.78% | 48.01% | 1.98% | 51.06% |  |  |  |  |  | 
COc1cc([C@@H]2c3cc4c(cc3[C@@H](O[C@@H]3O[C@@H]5CO[C@@H](C)O[C@H]5[C@H](O)[C@H]3O)[C@H]3COC(=O)[C@H]23)OCO4)cc(OC)c1O [Etoposide] | -0.43% | 49.95% | -2.73% | 53.40% |  |  |  |  |  | 
Cc1[nH]c2ccccc2c1CCNCc1ccc(/C=C/C(=O)NO)cc1 [Panobinostat] | 44.02% | 29.42% | 37.62% | 33.38% |  |  |  |  |  | 
Nc1ccn([C@@H]2O[C@H](CO)[C@@H](O)C2(F)F)c(=O)n1 [Gemcitabine hydrochloride] | 1.09% | 49.25% | 10.34% | 46.91% |  |  |  |  |  | 
CN(Cc1cnc2nc(N)nc(N)c2n1)c1ccc(C(=O)N[C@@H](CCC(=O)O)C(=O)O)cc1 [Methotrexate] | 15.11% | 42.77% | 17.38% | 43.42% |  |  |  |  |  | 
O=c1[nH]c(=O)n([C@H]2C[C@H](O)[C@@H](CO)O2)cc1F [Floxuridine] | 0.74% | 49.41% | 5.87% | 49.13% |  |  |  |  |  | 
C#Cc1cccc(Nc2ncnc3cc(OC)c(OCCCCCCC(=O)NO)cc23)c1 [CUDC-101] | 70.67% | 17.12% | 72.15% | 16.26% |  |  |  |  |  | 
O=C(CCCCCCC(=O)Nc1ccccc1)NO [Vorinostat] | 3.50% | 48.13% | 7.67% | 48.24% |  |  |  |  |  | 
CC[C@]1(O)C[C@H]2CN(CCc3c([nH]c4ccccc34)[C@@](C(=O)OC)(c3cc4c(cc3OC)N(C=O)[C@H]3[C@@](O)(C(=O)OC)[C@H](OC(C)=O)[C@]5(CC)C=CCN6CC[C@]43[C@@H]65)C2)C1.O=S(=O)(O)O [Vincristine Sulfate (Oncovin)] | 7.89% | 46.11% | 3.90% | 50.11% |  |  |  |  |  | 
CCN(CC)CCCC(C)Nc1c2ccc(Cl)cc2nc2ccc(OC)cc12 (stereo not shown) [Quinacrine HCl] | 11.37% | 44.50% | 8.52% | 47.81% |  |  |  |  |  | 
C=CC[C@@H]1/C=C(\C)C[C@H](C)C[C@H](OC)[C@H]2O[C@@](O)(C(=O)C(=O)N3CCCC[C@H]3C(=O)O[C@H](/C(C)=C/[C@@H]3CC[C@@H](O)[C@H](OC)C3)[C@H](C)[C@@H](O)CC1=O)[C@H](C)C[C@@H]2OC.O [FK 506_Tacrolimus] | -2.23% | 50.78% | -2.68% | 53.37% |  |  |  |  |  | 
Cc1ccc(C(=O)N(CCCN)[C@@H](c2oc3cc(Cl)ccc3c(=O)c2Cc2ccccc2)C(C)C)cc1 [SB 743921] | -12.94% | 55.72% | -30.32% | 67.08% |  |  |  |  |  | 
CC/C(=C(\c1ccc(O)cc1)c1ccc(OCCN(C)C)cc1)c1ccccc1 [4-hydroxytamoxifen] | -45.98% | 70.98% | -42.66% | 73.20% |  |  |  |  |  | 
CO[C@@H](C(=O)N1Cc2[nH]nc(NC(=O)c3ccc(N4CCN(C)CC4)cc3)c2C1)c1ccccc1 [PHA-739358 (Danusertib)] | 4.40% | 47.72% | 1.12% | 51.48% |  |  |  |  |  | 
CC1(C)NC(=O)N(c2ccc([N+](=O)[O-])c(C(F)(F)F)c2)C1=O [Nilutamide] | 4.05% | 47.88% | 4.06% | 50.03% |  |  |  |  |  | 
COc1cc([C@@H]2c3cc4c(cc3[C@@H](O[C@@H]3O[C@@H]5CO[C@@H](c6cccs6)O[C@H]5[C@H](O)[C@H]3O)[C@H]3COC(=O)[C@H]23)OCO4)cc(OC)c1O [Teniposide] | 10.91% | 44.71% | 6.57% | 48.78% |  |  |  |  |  | 
CCc1c2c(nc3ccc(OC(=O)N4CCC(N5CCCCC5)CC4)cc13)-c1cc3c(c(=O)n1C2)COC(=O)[C@]3(O)CC.Cl [Irinotecan hydrochloride] | -1.48% | 50.43% | 0.58% | 51.76% |  |  |  |  |  | 
C[C@@H](CN1CC(=O)NC(=O)C1)N1CC(=O)NC(=O)C1 [Dexrazoxane] | 16.70% | 42.04% | 14.98% | 44.61% |  |  |  |  |  | 
COc1ccc(-c2cc3c(C)nc(N)nc3n([C@H]3CC[C@H](OCCO)CC3)c2=O)cn1 [PF-04691502] | -6.58% | 52.79% | -5.13% | 54.58% |  |  |  |  |  | 
CCCS(=O)(=O)Nc1ccc(F)c(C(=O)c2c[nH]c3ncc(-c4ccc(Cl)cc4)cc23)c1F [Vemurafenib, reference compound] |  | 12.12% |  | 12.00% | 12.9 ± 1.6 µM | ~20% | < -2.0 | 16.9 ± 4.4 µM | 10.5 ± 1.9 µM | 15.1 ± 0.2 µM
O=C(c1cc(Cc2n[nH]c(=O)c3ccccc23)ccc1F)N1CCN(C(=O)C2CC2)CC1 [Olaparib] | 15.27% | 42.70% | 14.14% | 45.03% |  |  |  |  |  | 
CO[C@H]1C[C@@H]2CC[C@@H](C)[C@@](O)(O2)C(=O)C(=O)N2CCCC[C@H]2C(=O)O[C@H]([C@H](C)C[C@@H]2CC[C@@H](O)[C@H](OC)C2)CC(=O)[C@H](C)/C=C(\C)[C@@H](O)[C@@H](OC)C(=O)[C@H](C)C[C@H](C)/C=C/C=C/C=C/1C [Rapamycin (sirolimus)] | -16.43% | 57.34% | -26.38% | 65.13% |  |  |  |  |  | 
CC(=O)OC[C@H]1O[C@@H]([S-])[C@H](OC(C)=O)[C@@H](OC(C)=O)[C@@H]1OC(C)=O.CCP(CC)CC.[Au+] [Auranofin] | 60.34% | 21.89% | 55.51% | 24.51% |  |  |  |  |  | 
C#Cc1cccc(Nc2ncnc3cc(OCCOC)c(OCCOC)cc23)c1 [Erlotinib hydrochloride] | -99.93% | 95.90% | -12.97% | 58.47% |  |  |  |  |  | 
CC(C)n1nc(-c2ccc3oc(N)nc3c2)c2c(N)ncnc21 [INK128] | 4.97% | 47.46% | 4.58% | 49.77% |  |  |  |  |  | 
CN(C)CCOc1ccc(/C(=C(/CCCl)c2ccccc2)c2ccccc2)cc1 [Toremifene citrate] | 75.12% | 15.06% | 75.95% | 14.37% |  |  |  |  |  | 
CCN(CC)CCOc1ccc(C(=C(Cl)c2ccccc2)c2ccccc2)cc1 [Clomifene citrate] | 59.99% | 22.05% | 68.69% | 17.97% |  |  |  |  |  | 
Nc1nccc(-c2c(-c3ccc(F)cc3)ncn2C2CCCCC2)n1 [PF670462] | 40.03% | 31.27% | 29.89% | 37.22% |  |  |  |  |  | 
Cn1cnc2c(F)c(Nc3ccc(Br)cc3Cl)c(C(=O)NOCCO)cc21 [AZD6244 (Selumetinib)] | 5.13% | 47.38% | 5.57% | 49.28% |  |  |  |  |  | 
CC/C(=C(\c1ccccc1)c1ccc(OCCN(C)C)cc1)c1ccccc1 [Tamoxifen citrate] | 67.86% | 18.41% | 59.34% | 22.61% |  |  |  |  |  | 
